The record followed here is patent publication US5110828A (priority 1988, dated 1992).

Structures can show the parent of a compound that is named as a salt. Where two headings read alike, the source gives them in different places.

As a reminder, the IC50 is the concentration that gives 50% inhibition.

Assay [1] has as its target muscarinic receptors. Format: binding, rat (Hooded Lister). To be noted: displacement of 0.27 nM 3H-QNB, rat cerebral cortex homogenate, 37° C., 30 min.
Assay [2] addresses muscarinic receptors. As to the kind of experiment: Radio ligand binding, displacement of muscarinic agonist 3H-Oxotremorine-M (3H-OXO-M). Details: species or system rat (Hooded Lister). To be noted: displacement of 2 nM 3H-OXO-M, rat cerebral cortex homogenate, 37° C., 30 min, 2 mM magnesium chloride.

For `CON=C(C)C1CN2CCC1CC2` (mixture of isomers) [E 3, (±) trans-3-Acetyl-1-azabicyclo[2.2.21octane-O-methyloxime hydrochloride salt], the IC50 on muscarinic receptors [1] turned out to be 2000 nM; on muscarinic receptors [2], 69 nM.
Taken in the same sequence, the figures for `CON=C[C@H]1C[C@@H]2CCN(C1)C2` (relative stereo) [E 23, (±)exo-1-Azabicyclo[3.2.11oct-3-ylcarboxaldehyde, O-methyloxime hydrochloride salt] were 5570 nM and 240 nM.
Taken in the same sequence, the figures for `C#CCON=C(C)C1CN2CCC1C2` (mixture of isomers) [E 15, (±)exo-3-Acetyl-1-azabicyclo2.2.1]heptane-trans-O-proparqyloxime hydrochloride salt] were 3900 nM and 219 nM.
Consider `C#CCON=CC12CCN(CC1)C2` [E 21, syn-1-Azabicyclo[2.2.11hect-4-ylcarboxaldehyde, O-proparqyloxime oxalate salt], for which the concentration for half-maximal inhibition (IC50) turned out to be 21000 nM at muscarinic receptors [1] and 352 nM at muscarinic receptors [2].
Taken in the same sequence, the figures for `CCC(=NOC)C1CN2CCC1C2` (mixture of isomers) [E 16, (±)exo-3-Propan-1-one-1-azabicyclo2.2.11heptane-trans-O-methyloxime hydrochloride salt] were 3400 nM and 204 nM.
The like results for `CON=C(C)C1CN2CCC1C2` (racemic) [E 13, (±)exo-3-Acetyl-1-azabicyclo[2.2.1]heptane-trans-O-methyloxime oxalate salt] were, in that order, 9000 nM and 99 nM.
As for `CCON=C[C@@H]1CN2CC[C@@H]1C2` (relative stereo) [E 8, (±) exo-1-Azabicyclo[2.2.1]hept-3-ylcarboxaldehyde, O-ethyloxime oxalate salt], the results for the IC50 at muscarinic receptors [1] and at muscarinic receptors [2] were 5600 nM and 160 nM, respectively.
Taken in the same sequence, the figures for `CON=C(C)C12CCN(CC1)C2` [E 20, 4-Acetyl-1-azabicyclo[2.2.1]heptane-O-methyloxime oxalate salt] were 12500 nM and 55 nM.
As to `CON=C[C@@H]1CN2CC[C@@H]1C2` (relative stereo) [E 7, (±) exo-1-Azabicyclo[2.2.1]hept-3-ylcarboxaldehyde, O-methyloxime oxalate salt], the half-maximal inhibitory concentration (IC50) turned out to be 4800 nM at muscarinic receptors [1] and 14 nM at muscarinic receptors [2].
The like results for `CON=CC12CCCN(CC1)C2` (mixture of isomers) [E 1, (±) syn-1-Azabicyclo[3,2,1]oct-5-ylcarboxaldehyde, O-methyloxime hydrochloride salt] were, in that order, 5200 nM and 73 nM.
The like results for `CON=CC12CCN(CC1)C2` [E 19, syn-1-Azabicyclo[2.2.1]hept-4-ylcarboxaldehyde, O-methyloxime hydrochloride salt] were, in that order, 40000 nM and 118 nM.
The like results for `C=CCON=C[C@@H]1CN2CC[C@@H]1C2` (relative stereo) [E 22, (±)exo-1-Azabicyclo2.2.1]hept-3-ylcarboxaldehyde, O-allyloxime oxalate salt] were, in that order, 8500 nM and 215 nM.
Consider `C#CCON=C[C@@H]1CN2CC[C@@H]1C2` (relative stereo) [E 9, (±) exo-1-Azabicyclo[2.2.11hept-3-ylcarboxaldehyde, O-proparqyloxime oxalate salt], for which the values for the IC50 at muscarinic receptors [1] and on muscarinic receptors [2] were 2700 nM and 24 nM, respectively.
Taken in the same sequence, the figures for `CON=CC1CN2CCC1CC2` (racemic) [E 2, (±) 1-Azabicyclo[2.2.2]oct-3-ylcarboxaldehyde, O-methyloxime hydrochloride salt] were 10000 nM and 95 nM.
`CON=C(C)C1CC2CCN(C2)C1` (racemic) [E 24, (±)exo-3-Acetyl-1-azabicyclo[3.2.1]octane-trans-O-methyloxime hydrochloride salt]: the results for the IC50 at muscarinic receptors [1] and at muscarinic receptors [2] were 7300 nM and 320 nM, respectively.
The like results for `C#CCON=CC1CN2CCC1CC2` (racemic) [E 17, (±)1-Azabicyclo[2.2.21oct-3-ylcarboxaldehyde, O-proparqyloxime hydrochloride salt] were, in that order, 2450 nM and 190 nM.
Taken in the same sequence, the figures for `CON=C(C)C12CCCN(CC1)C2` (racemic) [E 6, (±) trans-5-Acetyl-1-azabicyclo[3.2.1]octane-O-methyloxime hydrochloride salt] were 4400 nM and 46 nM.
